Legend:
CCR9+ tumor cells = experiment: Transwell migration assay of CCR9+ tumor cells toward CCL25; type: cell-based
MCF7 cells = experiment: Chromium-release cytotoxicity assay, MCF7 cells lysed by survivin-specific T cells; type: cell-based, human; details: versus control / CCR9 knockdown
Method: FIG. 1: CCR9 knockdown sensitizes tumor cells to immune attack (A) MCF7 cells were transfected with the described siRNA sequences and harvested after 72 h for mRNA and protein estimation using RT-PCR (upper) and immunoblot (lower) analysis, respectively. GAPDH and beta-actin were used as controls for RNA and protein normalization, respectively. (B) Luc-CTL cytotoxicity assay with PBMC-derived CTLs and bi-specific Ab as effector population and MCF7 as target cells, which were transfected with individual (s1-s4) or pooled CCR9 siRNA sequences. PD-L1 and non-specific control siRNAs were used as positive and negative controls, respectively, for CTL-mediated cytotoxicity. (C, D) Cr-release assay showing % specific lysis of MCF7 cells by survivin-specific T cells at different ratios upon CCR9 knockdown (C) or overexpression (D). MCF7 cells were transfected with either CCR9 siRNA s1 (Δ), pooled siRNA sequences (◯), positive control PD-L1 (□), and non-specific control siRNA (▪) (C) or with pCMV6-AC-His control vector (▪) and pCMV6-AC-His-CCR9 expression construct (∘) (D) 72 h prior to the assay. […] Error bars denote ±SEM, and statistical significance was calculated using the unpaired, two-tailed Student's t-test. […]

pertussis toxin
migration of CCR9+ tumor cells toward CCL25 (CCR9+ tumor cells): inhibited | MCF7 lysis by survivin-specific CTL (MCF7 cells): did not elicit elevated tumor lysis

Reference: US20190054110A1, “MODULATORS OF CCR9 FOR TREATING TUMOR RESISTANCE TO IMMUNE RESPONSES” (DEUTSCHES KREBSFORSCHUNGSZENTRUM STIFTUNG DES ÖFFENTLICHEN …, priority 2016, published 2019)
